Measurements from US20230391828A1, “REGULATORS OF CELL DIVISION” (TECHNISCHE UNIVERSITÄT DRESDEN, priority 2020, published 2023).
“Also recorded” adds a separate entry of the source. Blank lines part the entries; values can stand above or below the substance they belong to. Bridge positions count the residues as written; N and C are the ends. Square brackets hold non-standard residues; d marks the D form. 2Nal = N[C@@H](Cc1ccc2ccccc2c1)C(=O)O; R8 = C=CCCCCCC[C@@](C)(N)C(=O)O; S5 = C=CCCC[C@](C)(N)C(=O)O; Pra = C#CC[C@H](N)C(=O)O

Experiments:
[1] = test system: HeLa K cells; assay: Live cell imaging of HeLa K cells; assay type: cell-based, human; conditions: 50 μM
Method: (§1) Automated time-lapse microscopy was performed using ImageXpress Micro XLS wide-field screening microscope (Molecular Devices) equipped with a 10×, 0.5 NA., 20×, 0.7 NA, and 40×, 0.95 NA Plan Apo air objectives (Nikon), a laser-based autofocus and a full environmental control (5% CO2, 37° C.). Cells were grown in 96-well plastic bottom plates (clear, Greiner Bio-One) and for live cell imaging media was changed to DMEM without phenol red and riboflavin (Thermo Fisher Scientific), supplemented with 10% (v/v) FBS, 1% (v/v) Glutamax, 1% (v/v) penicillin-streptomycin, and 0.5 μg/ml amphotericin B.
(§2) HeLa K cells were seeded into 96-well plates (4000-4500 cells) one day prior the treatment with compounds of the invention. Cells were treated with 50 μM of compound G3_mod1_mini PEG and cell division was monitored by live cell imaging using ImageXpress Micro XLS wide-field screening microscope, images were acquired every 3 min for time courses of 48 h. The length of mitosis was determined manually.
(§3) Automated time-lapse microscopy was performed using ImageXpress Micro XLS wide-field screening microscope (Molecular Devices) equipped with a 10×, 0.5 NA., 20×, 0.7 NA, and 40×, 0.95 NA Plan Apo air objectives (Nikon), a laser-based autofocus and a full environmental control (5% CO2, 37° C.). Cells were grown in 96-well plastic bottom plates (clear, Greiner Bio-One) and for live cell imaging media was changed to imaging media. Imaging media for A549, HeLa K and SW480 was DMEM without phenol red and riboflavin (Thermo Fisher Scientific), supplemented with 10% (v/v) FBS, 1% (v/v) Glutamax, and 1% (v/v) penicillin-streptomycin; imaging media for HT-1080 and RKO was RPMI 1640 without phenol red (Thermo Fisher Scientific), supplemented with 10% (v/v) FBS, and 1% (v/v) penicillin-streptomycin.
(§4) A549 (5000-5500 cells), HeLa K (3000-4000 cells), HT-1080 (4000 cells), RKO (5000 cells), and SW480 (7000-8000 cells) cells were seeded into 96-well plates one day prior to treatment with compounds of the invention. Cells were treated with 50 μM of compound G3_mod1_mini PEG and cell division was monitored by live cell imaging using an ImageXpress Micro XLS wide-field screening microscope and images were acquired every 3 min for time courses of 24 h. The length of mitosis was determined manually.

[2] = test system: A549 cells; assay: Live cell imaging of A549 cells; assay type: cell-based, human; conditions: A549, 50 μM, imaged 24 h
Method: as §3, §4

[3] = test system: HT-1080 cells; assay: Live cell imaging of HT-1080 cells; assay type: cell-based, human; conditions: HT-1080, 50 μM, imaged 24 h
Method: as §3, §4

[4] = test system: RKO cells; assay: Live cell imaging of RKO cells; assay type: cell-based, human; conditions: 50 μM, imaged 24 h
Method: as §3, §4

[5] = test system: SW480 cells; assay: Live cell imaging of SW480 cells; assay type: cell-based, human; conditions: SW480, 50 μM, imaged 24 h
Method: as §3, §4

[6] = biological target: T1, APC/C (APC11) (Homo sapiens, UniProt Q9NYG5); assay: Pull-down binding assay in HeLa K cell extract, APC/C; conditions: Pra peptide clicked to azide agarose or magnetic beads, Western blot
T1 construct: endogenous in cells; host or cells: HeLa K cell extract
Method: (§5) For the protein transfer, the 0.45 μm Immobilon-FL PVDF membrane (Merck Millipore) was used. The membrane was activated in ethanol and then transferred to the Blotting buffer (50 mM SDS-MOPS, 50 mM Tris base, 0.1% SDS, 1 mM EDTA, 20% EtOH). The proteins were transferred using a wet transfer for 1.5 h at 400 mA. Subsequently, the membrane was incubated with the blocking solution, 10% milk in PBS-T (0.02% Tween-20 in PBS), for 1 h at room temperature. To detect proteins of the interest, the membrane was incubated with primary antibodies overnight at 4° C. Followed by washing the membrane 3 times 10 min with PBS-T and incubation with IRDye fluorescently labelled secondary antibodies for 1 h. Prior detection, the membrane was twice washed with PBS-T for 10 min and once with PBS for 10 min. The detection was done using the quantitative near-infrared scanning system Odyssey (LI-COR Biosciences).
HeLa K cell pellet was re-suspended in the extraction buffer (30 mM HEPES pH 7.5, 175 mM NaCl, 2.5 mM MgCl2, 0.25% NP40, 10% glycerol, 1 mM DTT) supplemented with 10 μM MG132 (VWR), 1 mM PMSF (Sigma-Aldrich), complete protease inhibitor cocktail (Roche) and PhosSTOP phosphatase inhibitors (Roche) and incubated for 20 min on ice, followed by centrifugation of cell debris for 15 min at 4° C. 16 100 g. In mean time, inhibitor molecules containing Propargyl (Pra) chemical group were covalently attached to the azide agarose or azide magnetic resin (Jena Bioscience) by Cu(I)-catalysed azide-alkyne cycloaddition reaction. Specifically, the inhibitor molecules were mixed with azide agarose resin in ratio 0.125 μmol inhibitor/25 μl agarose resin and azide magnetic resin in ratio 0.018 μmol inhibitor/20 μl magnetic resin. The reaction was catalysed by 1 mM CuSO4, 0.1 mM TBTA (Sigma-Aldrich) and 1 mM Sodium ascorbate and was performed on the rotating wheel for 30 min at room temperature in the volume of 1 ml. Subsequently, the resin was washed 5 times with the extraction buffer. The inhibitor-agarose resin was added to 1 mg of HeLa K cell extract and the inhibitor-magnetic resin was added to 0.5 mg of HeLa K cell extract followed by incubation at 4° C. for 2 h. Followed by washing the resin 5 times with the extraction buffer. Pull-down proteins were eluted by boiling for 15 min with 1×LDS sample buffer supplemented with 100 mM DTT (agarose resin) or by incubation with 1×LDS sample buffer for 10 min at room temperature followed by taking supernatant that was supplemented with 100 mM DTT and boiling it for 10 min. Samples were subjected to SDS PAGE and Western blot analysis.
HeLa K cell pellet was re-suspended in the extraction buffer (30 mM HEPES pH 7.5, 175 mM NaCl, 2.5 mM MgCl2, 0.25% NP40, 10% glycerol, 1 mM DTT supplied with complete protease inhibitor cocktail (Roche), PhosSTOP phosphatase inhibitors (Roche), 1 mM PMSF, 10 μM MG132) and incubated for 20 min on ice, followed by centrifugation to clear the lysate for 15 min at 4° C. 16,100 g. In the meantime, inhibitor molecules containing the propargyl-Gly-OH (Pra) chemical group were covalently attached to the azide agarose resin (Jena Bioscience) by Cu(I)-catalysed azide-alkyne cycloaddition reaction. Specifically, the inhibitor molecules were mixed with azide agarose resin in ratio 0.125 μmol inhibitor/20 μl agarose resin. The reaction was catalysed by 0.1 mM CuSO4, 0.5 mM THPTA (Sigma-Aldrich) and 5 mM Sodium ascorbate and was performed on the rotating wheel for 30 min at room temperature in the volume of 1 ml. […]

[7] = biological target: T2, Cullin 1 (Homo sapiens, UniProt Q13616); assay: Pull-down binding assay in HeLa K cell extract, Cullin 1; conditions: azide beads, Western blot
T2 construct: endogenous in cells; host or cells: HeLa K cell extract
T2 sequence (Q13616 whole entry): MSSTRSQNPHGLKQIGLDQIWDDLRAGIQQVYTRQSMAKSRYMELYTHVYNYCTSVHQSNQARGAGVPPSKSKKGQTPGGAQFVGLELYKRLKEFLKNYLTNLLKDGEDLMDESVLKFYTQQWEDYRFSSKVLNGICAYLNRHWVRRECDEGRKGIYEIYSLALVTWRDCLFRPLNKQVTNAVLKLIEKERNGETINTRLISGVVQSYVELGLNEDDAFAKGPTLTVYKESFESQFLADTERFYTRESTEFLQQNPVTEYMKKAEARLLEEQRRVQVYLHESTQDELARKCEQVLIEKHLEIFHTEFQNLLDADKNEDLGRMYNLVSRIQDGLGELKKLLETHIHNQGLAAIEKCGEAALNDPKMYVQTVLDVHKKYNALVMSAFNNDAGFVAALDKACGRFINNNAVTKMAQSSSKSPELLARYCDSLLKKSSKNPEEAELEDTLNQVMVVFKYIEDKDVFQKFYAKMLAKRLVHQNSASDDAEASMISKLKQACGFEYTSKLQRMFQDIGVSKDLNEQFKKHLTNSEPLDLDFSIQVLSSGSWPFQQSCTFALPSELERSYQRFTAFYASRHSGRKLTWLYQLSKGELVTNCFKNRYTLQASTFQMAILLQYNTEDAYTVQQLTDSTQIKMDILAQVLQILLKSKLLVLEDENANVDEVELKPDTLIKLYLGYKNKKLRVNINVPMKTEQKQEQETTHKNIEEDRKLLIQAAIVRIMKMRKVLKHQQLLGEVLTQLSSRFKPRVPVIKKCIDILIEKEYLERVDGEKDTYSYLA
Method: as §5
(§6) HeLa K cell pellet was re-suspended in the extraction buffer (30 mM HEPES pH 7.5, 175 mM NaCl, 2.5 mM MgCl2, 0.25% NP40, 10% glycerol, 1 mM DTT) supplemented with 10 μM MG132 (VWR), 1 mM PMSF (Sigma-Aldrich), complete protease inhibitor cocktail (Roche) and PhosSTOP phosphatase inhibitors (Roche) and incubated for 20 min on ice, followed by centrifugation of cell debris for 15 min at 4° C. 16 100 g. […]

[8] = biological target: T3, RBX1 (Homo sapiens, UniProt P62877); assay: Pull-down binding assay in HeLa K cell extract, RBX1; conditions: azide beads, Western blot
T3 construct: endogenous in cells; host or cells: HeLa K cell extract
T3 sequence (P62877 whole entry): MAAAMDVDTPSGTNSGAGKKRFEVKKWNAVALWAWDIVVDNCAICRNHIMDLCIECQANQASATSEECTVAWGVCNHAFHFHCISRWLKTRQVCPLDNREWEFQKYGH
Method: as §5, §6

[9] = biological target: T4, APC/C (Homo sapiens, UniProt Q9NYG5); assay: In vitro APC/C ubiquitination assay driven by the E2 enzyme UBE2C, fluorophore-labelled securin substrate; assay type: biochemical; conditions: 100 μM, UBE2C, reaction time 45 min
T4 construct: made in house; host or cells: SF9 insect cells (baculovirus)
Method: Proteins were separated by SDS-PAGE electrophoresis using precast Bolt 4-12% Bis-Tris Plus protein gels (Thermo Fisher Scientific) and Criterion XT Bis-Tris Midi Protein Gels (Bio-Rad). In different experiments, various conditions were used: in vitro APC/C ubiquitination assays—165 V, 40 min, SDS-MES running buffer (50 mM MES, 50 mM Tris base, 0.1% SDS, 1 mM EDTA, pH 7.3; Thermo Fisher Scientific); in vitro APC/C ubiquitination assays determining KM—165V, 1 h, SDS-MOPS running buffer (50 mM MOPS, 50 mM Tris base, 0.1% SDS, 1 mM EDTA, pH 7.7; Thermo Fisher Scientific); pull-down binding assay—165 V, 35 min, SDS-MES running buffer.
APC/C-dependent ubiquitination reactions were performed at 30° C. in 30 mM HEPES pH 7.4, 175 mM NaCl, 8 mM MgCl2, 0.05% Tween-20, 1 mM DTT and 5% glycerol and contained 20 nM recombinant APC/C (note, for testing the first generation of inhibitors, APC/C and Cdc20 immunoprecipitated from mitotic HeLa K cells was used), 340 nM Cdc20, 46 nM GST-UBA1, 340 nM UBE2C (alternatively 400 nM UBE2D1, 280 nM UBE2S), 21 μM His6-ubiquitin or if it is indicated 21 μM methylated-ubiquitin (BostonBiochem), 2.6 mM ATP, 10 mM phosphocreatine and 11 μM creatine kinase. As substrates, 35 nM fluorophore-labeled ubiquitin-cyclin B and 50 nM fluorophore-labeled securin were standardly used (fluorophore IRDye 800CW (LI-COR) was used for labelling). In case of KM and kcat determination, 50, 100, 250, 500, 750, 1000, 1250, 2500 and 5000 nM fluorophore-labelled securin was used. The reaction was done in the volume of 15 μl, it was quenched after the indicated time with LDS sample buffer (Thermo Fisher Scientific) supplemented with 100 mM DTT and subjected to SDS-PAGE. Detection of fluorescently labelled substrates was done by quantitative near-infrared scanning system Odyssey.

[10] = test system: hTERT RPE-1 cells; assay: Live cell imaging of hTERT RPE-1 cells; assay type: cell-based; conditions: hTERT RPE-1, 100 μM, imaged 12-24 h
Method: as §1
as §2, with “hTERT RPE-1” for “HeLa K”, “(5000” for “(4000-4500”, “100” for “50”, “G2-6 and the negative control molecule G2-N2” for “G3_mod1_mini PEG”, “12-24” for “48”

Substance: Ac-GFWFG-NH(CH2)2OCH2CO-cyclo(4,11)-EWWZIKEIQRXRRA-NH2 ({Ac-Gly-Phe-Trp-Phe-Gly-miniPEG}-EWW[R8]IKEIQR[S5]RRA-NH2; staple 4-11) [G3-6_mod1_miniPEG]
cell fate (cell death) ([1]; imaged 24 h): cause cell death after a metaphase arrest in a subpopulation | effect on mitosis (length of mitosis) ([1]; imaged 24 h): prolongs mitosis | cell fate (cell death) ([1]; imaged 48 h): causes cell death after metaphase | effect on mitosis (length of mitosis) ([1]; imaged 48 h): prolongs mitosis by arresting cells in metaphase; also recorded: induces a metaphase delay | effect on mitosis (length of mitosis) [2]: prolongs mitosis | cell fate (cell death) [3]: cause cell death after a metaphase arrest in a subpopulation | effect on mitosis (length of mitosis) [3]: prolongs mitosis | effect on mitosis (length of mitosis) [4]: prolongs mitosis | cell fate (cell death) [5]: cause cell death after a metaphase arrest in a subpopulation | effect on mitosis (length of mitosis) [5]: prolongs mitosis

binding to the APC/C (pull-down) [6]: binds to the APC/C | binding to Cullin 1 (pull-down) [7]: does not bind | binding to RBX1 (pull-down) [8]: does not bind
Substance: Ac-cyclo(4,11)-EWPraZIKEIQRXRRA-NH2 (Ac-EW[Pra][R8]IKEIQR[S5]RRA-NH2; staple 4-11; SMILES C#CC[C@H](NC(=O)[C@H](Cc1c[nH]c2ccccc12)NC(=O)[C@H](CCC(=O)O)NC(C)=O)C(=O)N[C@]1(C)CCCCCCC=CCCC[C@@](C)(C(=O)N[C@@H](CCCNC(=N)N)C(=O)N[C@@H](CCCNC(=N)N)C(=O)N[C@@H](C)C(N)=O)NC(=O)[C@H](CCCNC(=N)N)NC(=O)[C@H](CCC(N)=O)NC(=O)[C@H]([C@@H](C)CC)NC(=O)[C@H](CCC(=O)O)NC(=O)[C@H](CCCCN)NC(=O)[C@H]([C@@H](C)CC)NC1=O) [G3-6Pra]

Substance: cyclo(1,14)-[L 2-NaI L W K W E W E K R K p P] (cyclo(L[2Nal]LWKWEWEKRK[dP]P); SMILES CC(C)C[C@@H]1NC(=O)[C@H](Cc2ccc3ccccc3c2)NC(=O)[C@H](CC(C)C)NC(=O)[C@@H]2CCCN2C(=O)[C@H]2CCCN2C(=O)[C@H](CCCCN)NC(=O)[C@H](CCCNC(=N)N)NC(=O)[C@H](CCCCN)NC(=O)[C@H](CCC(=O)O)NC(=O)[C@H](Cc2c[nH]c3ccccc23)NC(=O)[C@H](CCC(=O)O)NC(=O)[C@H](Cc2c[nH]c3ccccc23)NC(=O)[C@H](CCCCN)NC(=O)[C@H](Cc2c[nH]c3ccccc23)NC1=O) [G2-6]
inhibition of APC/C activity in vitro (ubiquitinated securin) [9]: the most potent molecule from item (f); also recorded: inhibit APC/C in vitro the most effectively compared to other molecules of item (f) | cell fate (cell death) [10]: causes cell death; also recorded: mitotic or subsequent cell death | effect on mitosis (length of mitosis) [10]: prolongs mitosis; also recorded: causes prolonged mitosis
